The values that follow come from a melting point compilation (Tetko et al.; mined from patent text by program, amines drawn as free bases though some values may be those of a salt).

The term melting point denotes the temperature, or range, at which the solid turns liquid.

As to `CC(C)NCC(O)COc1ccc(-c2nc(C(F)(F)F)c[nH]2)cc1` (configuration not stated), the melting point was 173 to 174 °C.
`COc1cc(C)c(CCCCCCCCCC(=O)CCCCCCCCCCCC(=O)O)c(O)c1OC` displayed a melting point of 63 to 64 °C.
Next, `COc1cccc2c1OC(CO)CN2` (configuration not stated): 108 to 110 °C.
Next, `COc1ccc(C2C3=C(COC3=O)Nc3ccc4cc(C)[nH]c4c32)cc1O` (configuration not stated): 293 to 294 °C; `CCOC(=O)COc1ccc(C2=CC(=O)CCC2CC)c(Cl)c1Cl` (configuration not stated): 110 to 112 °C.
Next, `Nc1ccc(Cn2cnnn2)cc1`: 138 to 140 °C; `CP1(=O)c2ccccc2CN1c1ccc(Oc2ccccc2)cc1` (configuration not stated): 176 to 177 °C.
`O=C(O)C=CCNCS(=O)(=O)c1ccc([N+](=O)[O-])cc1[N+](=O)[O-]` gave a melting point of 174 °C.
In the case of `COC(=O)c1ccccc1NC(=O)c1c(-c2ccccc2)c(-c2ccc(F)cc2)c(C=O)n1C(C)C` it was 222 to 223 °C; in that of `NC(=O)c1ccc(C(c2ccccc2)(c2ccccc2)c2ccccc2)cn1`, 239 to 240 °C; in that of `CN(C)C1CCN(c2ccc(-c3[nH]nc4c3C(=O)c3c(NC(=O)NN5CCOCC5)cccc3-4)cc2)CC1`, 258 °C.
`CC(=O)c1ccc(C(=O)NC/C=C/c2ccccc2)cc1` gave a melting point of 120 °C.
Next, `O=C1CC(Nc2ccc([N+](=O)[O-])cc2)=NN1c1c(Cl)cc(Cl)cc1Cl`: 295 to 298 °C.
`C[C@H](NC(=O)COCCN1C(=O)c2ccccc2C1=O)C(=O)N[C@H](CCC(=O)OCc1ccccc1)C(N)=O`: the melting point is 205 to 206 °C.
Next, `CC(C(=O)O)c1ccc(-c2ccccc2)cc1` (configuration not stated): 144 to 145 °C; `COc1ccc(C(=O)c2cccc(OCc3nc(-c4ccccc4)oc3C)c2)c(OCCOC(C)=O)c1`: 90 to 91 °C.
Consider `CCOC(=O)C(=O)Nc1c([N+](=O)[O-])cc(Br)c2cccnc12`, for which the melting point fell in the range of 213 to 215 °C.
In the case of `CCCCN(CCCC)c1ccc(C=Cc2ccc(C=CC3=C(C#N)C(=C(C#N)C#N)OC3(c3ccccc3)C(F)(F)F)s2)c(OC)c1` (configuration not stated) it was 203 to 204 °C; in that of `Cc1noc(NS(=O)(=O)c2ccccc2-c2ccc(CC(C)C)cc2CO)c1C`, 60 to 67 °C.
In the case of `CC(C)c1ccc(Cc2c(N)nc(SCCN3CCNCC3)nc2N)cc1` it was 63 to 64 °C; in that of `COc1cc(Oc2c(Cl)cccc2C(F)(F)F)nc(C(=O)O)c1`, 110 to 112 °C.
As for `Fc1ccc(-c2ncn(C3CCN4CCCC4C3)c2-c2ccncc2)cc1` (configuration not stated), the melting point lay within 187 to 189 °C.
Next, `O=S1(=O)N=CN(C2CCCCCCC2)c2ccc(Cl)cc21`: 235 to 237 °C; `CCCn1cc(S(C)=O)c(=O)c2ccccc21` (configuration not stated): 126 to 128 °C; `COC(=O)Cc1cc2ccc(OC)cc2n(Cc2ccccc2)c1=O`: 118 to 120 °C.
In the case of `CNC(=S)N(Cc1cccnc1)N(C)C` it was 101 to 102 °C; in that of `CC(C(=O)O)n1ccc2c(OCc3ccccc3)cccc21` (configuration not stated), 143 to 146 °C.
In the case of `CCOC(=O)c1cn(C2CC2)c2c(F)c(C)c(F)cc2c1=O` it was 177 to 179 °C; in that of `CC(=O)Nc1ccc(C=CC2=NNC(=O)CC2C)cc1` (configuration not stated), 206 to 207 °C; in that of `Cc1ccccc1Nc1nc(NCCc2ccccc2)nc2ccccc12`, 95 to 96 °C.
As for `CCOC(=O)C(=O)Nc1cccc(C#N)c1`, the melting point was 149 to 150 °C.
Compound `CCC(O)(Cn1cncn1)C(c1ccc(Cl)cc1)n1cncn1` (configuration not stated) had a melting point of 60 to 64 °C.
Next, `O=C(O)c1cc(Cl)cc2c1CCCC2`: 130 to 140 °C.
Next, `CCOc1ccc(C2=NN(C3CCN(C(=O)N4CCOCC4)CC3)C(=O)[C@@H]3CC=CC[C@H]23)cc1OCC`: 139 to 141 °C.
In the case of `CN(C)S(=O)(=O)c1ccc(N)cc1C(F)(F)F` it was 140 to 142 °C; in that of `CSc1nc(O)c(-c2ccc(C)cc2)c(O)n1`, 226 °C; in that of `C=CC(=O)Nc1c(C)cccc1C`, 144 to 145 °C.
Compound `CC(=O)Nc1cccc(Nc2ncnc3[nH]cc(C(=O)c4cccc(F)c4)c23)c1` displayed a melting point of over 300 °C.
In the case of `CCCCn1c(=O)c2c(NC)n[nH]c2n(Cc2ccc([N+](=O)[O-])cc2)c1=O` it was 277 to 279 °C.
As for `CCN1CCC(=NO)c2ccn(CCCCN3CCC(C(=O)c4ccc(F)cc4)CC3)c2C1=O`, the melting point is 158 to 160 °C.
Next, `CS(=O)(=O)c1ccc(C2=C(c3ccc(-c4ccsc4)cc3)C(=O)OC2)cc1`: 220 to 222 °C; `COc1ccccc1N1CCN(C(=O)[C@H](N)Cc2cccnc2)CC1`: over 240 °C.
Next, `Cc1cc(Cl)ccc1OCC(=O)N1Cc2ccc(C(=O)c3cccc4ccccc34)n2Cc2ccccc21`: 130 to 134 °C; `O=CNCCNC1=NS(=O)(=O)c2cc(Cl)ccc2N1`: 245 to 247 °C; `CCC(CC)C1CC(=O)C(C(=O)NS(=O)(=O)c2ccc(C)cc2)C(=O)C1` (configuration not stated): 112 °C.
Next, `CN(C)c1ccc(NC(=O)N(C[C@H]2CC[C@@H](CN(C(=O)Nc3ccc(N(C)C)cc3)C3CCCCCCC3)CC2)C2CCCCCCC2)cc1`: 197 to 200 °C; `COC(=O)c1ccc2c(c1)C=CC(=O)CO2`: 89 to 93 °C; `CC1=C(C(=O)NC(C)(C)C)C(c2ccccc2Cl)C(C(=O)O)=C(COCCn2c(C)nc3ccccc32)N1` (configuration not stated): 187 to 188 °C.
`CC(=O)OC1CSC(Oc2cc(-c3cncnc3)cnc2Cl)C(OC(C)=O)C1OC(C)=O` (configuration not stated) returned a melting point of 72 to 90 °C.
In the case of `C/C=C/C(=O)N1C(=O)OC(C)(C)[C@H]1c1ccccc1` it was 104 °C.
In the case of `CC(=O)NC1C(O)OC(COC(C)=O)C(O)(C(C)=O)C1OC(C)C(=O)O` (configuration not stated) it was 85.8 to 90.8 °C.
Next, `CCSC(=O)Cc1cc(Oc2ccc(C(F)(F)F)cc2Cl)ccc1[N+](=O)[O-]`: 82.5 to 84.2 °C; `CCCCc1noc(-c2ccc(C(=O)NCCC(C)(C)C)cc2)n1`: 95 to 97 °C.
As to `COc1ccc(-c2c(NC(C)(C)Cc3ccccc3)c(=O)c2=O)cc1`, the melting point fell in the range of 150 to 151 °C.
In the case of `COC(=O)Cc1ccc(OCCNC(=O)C2Cc3ccccc3N2S(=O)(=O)c2ccc(-c3cccc(C(F)(F)F)c3)cc2)c(OC)c1` (configuration not stated) it was 52 to 60 °C; in that of `CCOC(=O)C(C)(C)CCCOc1ccc(OCCn2c(=O)sc3cc(C(=O)c4ccccc4)ccc32)cc1`, 82 to 84 °C; in that of `CN(C)C(=O)c1cc(N(C)C)cc(C(=O)N(C)C)n1`, 175 to 178 °C.
Next, `O=C(c1nnc(-c2ccccc2)o1)N1CC(Oc2ccc(CN3CC(C(F)F)C3)cc2)C1`: 147 °C.
Next, `COc1ccc(Cn2cnc(=O)c3[nH]c(C(C)C)nc32)cc1OC1CCCC1`: 243 to 244 °C; `COC(=O)c1cnn(-c2ccc(Cl)cc2Cl)c1N`: 143 to 145 °C.
In turn, `Cc1nc2c(OCc3ccccc3F)cccn2c1CO` displayed a melting point of 151 to 153 °C.
Next, `COC(=O)C(=Cc1cc(OC)cc(OC)c1)c1ccc(Oc2ccc(C=C3SC(=O)NC3=O)cc2)cc1`: 126 to 128 °C.
In the case of `Nc1nc(Cc2cccs2)no1` it was 132 to 133 °C.
Next, `COC(=O)[C@H](CCSC)NC(=O)c1ccc(NC(Cn2ccnc2)c2ccc(F)cc2)cc1-c1ccc(F)cc1` (some centres not stated): 94 to 98 °C; `O=C(NCC(F)(F)F)C1(CCCCc2ccc(NS(=O)(=O)c3ccccc3)cc2)c2ccccc2-c2ccccc21`: 130 to 132 °C.
As for `c1ccc(Cn2cccc2-c2nc(Nc3ccc(-c4ccccc4)cc3)nc(Nc3ccc(-c4ccccc4)cc3)n2)cc1`, the melting point is 185 to 186 °C.
For `CC(=O)Nc1ccc(NC(=NC#N)Oc2ccccc2)cn1`, the melting point came out at 194 °C.
In the case of `CC(C)CC(C(=O)O)c1cc(Cl)c(-c2ccc(C(F)(F)F)cc2)c(OCC2CC2)c1` (configuration not stated) it was 115 to 116 °C; in that of `Cc1nc(N2CCOCC2)nc(C)c1-c1cccc2c1OC[C@H]2Nc1ccc2c(c1)OC[C@H]2CC(=O)O`, 168 °C; in that of `COc1ccc(-c2ncnnc2-c2ccc(OC)cc2)cc1`, 118 to 120 °C.
Next, `N#CCNCCNCC#N`: 41 to 42 °C; `CC(C)C(C(=O)O)c1ccc([N+](=O)[O-])cc1` (configuration not stated): 124 to 127 °C.
In the case of `O=[N+]([O-])c1ccc(NCc2ccccc2)c(F)c1` it was 97.5 to 99 °C; in that of `Cc1cc(N)ccc1-c1ccc(-c2ccc(N)cc2C)s1`, 86 to 88 °C.
Compound `Cc1cccc(C(=O)Nc2ccc(N3CCN(Cc4ccc[nH]4)CC3)nc2)c1-c1ccc(C(C)C)cc1` showed a melting point of 130 °C.
In the case of `CCOC(=O)C1=C(COCCNCC(N)=O)NC(C)=C(C(=O)OC)C1c1ccccc1Cl` (configuration not stated) it was 126 to 129 °C.
In the case of `COc1cccc(OCCCSCCC(=O)O)c1` it was 53 to 55 °C.
The compound `CC(C)(C)N1CC(c2cccc(C(F)(F)F)c2)OCC1=O` (configuration not stated) displayed a melting point of 81 to 83 °C.
As for `O=C(Oc1ccccc1)C1=C(O)CCn2c1nc1ccccc12`, the melting point fell in the range of 176 to 178 °C.
In the case of `O=C(O)Cc1ccc2c(c1)C(O)c1ccccc1CO2` (configuration not stated) it was 132 to 134 °C; in that of `Nc1ccc(C(=O)OCCCN2CCOCC2)c(N)c1`, 96 °C.
Next, `CNCC1CN(c2c(F)cc3c(=O)c(C(=O)O)cn(C4CC4)c3c2Cl)CC1C` (configuration not stated): 253 to 255 °C; `Cc1c(Cc2cc(F)cc(Cl)c2)sc2c(-c3cccc(C(=O)NCCO)c3)cccc12`: 146 to 147 °C.
Next, `Cc1ccccc1-n1nccc1-c1nn(-c2cccc(C(F)(F)F)c2)ccc1=O`: 126 to 127 °C; `COc1nc2cc(Cl)cc(C)c2nc1OC`: 94 to 96 °C; `CCOC(=O)c1c(O)c2ccc(C)nc2[nH]c1=O`: 190 to 193 °C.
Regarding `CCOc1cccc(C(COC)n2nc(C(=O)O)c3c2-c2ccc(OCc4cncnc4)cc2CC3)c1` (configuration not stated), the melting point is 208 to 211 °C.
